# According to patent US20230085307A1, “PYRIDAZINONE COMPOUND AND HERBICIDE” (NISSAN CHEMICAL CORPORATION, priority 2019, published 2023):
# Tested on: lambsquarters
# Assay: Test Example 5: herbicidal effect by foliage application, plastic box (Table 20, symbol O)
# Assay type: in vivo, lambsquarters (Chenopodium album)
# Conditions: foliage application, 320 g/ha, evaluated three weeks after application
# In short: (§1)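 Sow seeds spot-wise in sterilized diluvial soil; cover with ~1.5 cm soil. Grow 14 days in greenhouse, 25° C. to 30° C. Spray foliage with emulsion diluted to predetermined amount. Rate effect after 3 weeks.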
row,SMILES,herbicidal effect on O: lambsquarters (criteria 0-5)
1,Cc1nn(C)c(=O)c(-c2c(-c3ccc(Br)cc3)sc3ccc(F)cc23)c1O [2-205],5 (Herbicidal rate of 90% or more (almost completely withered))
2,CCCC(=O)Oc1c(C)nn(C)c(=O)c1-c1c(-c2ccc(Br)cc2)sc2ccc(F)cc12 [2-206],5 (Herbicidal rate of 90% or more (almost completely withered))

# Tested on: southern crabgrass
# Assay: Test Example 4: herbicidal effect by soil treatment (Table 19, symbol F)
# Assay type: in vivo, southern crabgrass (Digitaria ciliaris)
# Conditions: amount of applied herbicide 320 g/ha
# In short: (§2)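 Applied as a water-diluted emulsion, the compound was sprayed onto soil covering newly sown seeds. Evaluation came three weeks after application, in a greenhouse held at 25° C. to 30° C.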
row,SMILES,"F: southern crabgrass, herbicidal effect rating"
1,Cc1nn(C)c(=O)c(-c2c(-c3ccc(Br)cc3)sc3ccc(F)cc23)c1O [2-205],5 (Herbicidal rate of 90% or more (almost completely withered))
2,CCCC(=O)Oc1c(C)nn(C)c(=O)c1-c1c(-c2ccc(Br)cc2)sc2ccc(F)cc12 [2-206],1 (Herbicidal rate of 5% or more and less than 20%)

# Tested on: persian speedwell
# Assay: Test Example 4: herbicidal effect by soil treatment (Table 19, symbol R)
# Assay type: in vivo, Persian speedwell (Veronica persica)
# Conditions: amount of applied herbicide 320 g/ha
# In short: as §2
row,SMILES,"R: persian speedwell, herbicidal effect rating"
1,Cc1nn(C)c(=O)c(-c2c(-c3ccc(Br)cc3)sc3ccc(F)cc23)c1O [2-205],5 (Herbicidal rate of 90% or more (almost completely withered))
2,CCCC(=O)Oc1c(C)nn(C)c(=O)c1-c1c(-c2ccc(Br)cc2)sc2ccc(F)cc12 [2-206],5 (Herbicidal rate of 90% or more (almost completely withered))

# Tested on: windgrass
# Assay: Test Example 5: herbicidal effect by foliage application, plastic box (Table 20, symbol L)
# Assay type: in vivo, windgrass (Apera spica-venti)
# Conditions: foliage application, 320 g/ha, evaluated three weeks after application
# In short: as §1
row,SMILES,herbicidal effect on L: windgrass (criteria 0-5)
1,Cc1nn(C)c(=O)c(-c2c(-c3ccc(Br)cc3)sc3ccc(F)cc23)c1O [2-205],5 (Herbicidal rate of 90% or more (almost completely withered))
2,CCCC(=O)Oc1c(C)nn(C)c(=O)c1-c1c(-c2ccc(Br)cc2)sc2ccc(F)cc12 [2-206],4 (Herbicidal rate of 70% or more and less than 90%)

# Tested on: chickweed
# Assay: Test Example 4: herbicidal effect by soil treatment (Table 19, symbol P)
# Assay type: in vivo, common chickweed (Stellaria media)
# Conditions: amount of applied herbicide 320 g/ha
# In short: as §2
row,SMILES,"P: chickweed, herbicidal effect rating"
1,Cc1nn(C)c(=O)c(-c2c(-c3ccc(Br)cc3)sc3ccc(F)cc23)c1O [2-205],3 (Herbicidal rate of 40% or more and less than 70%)
2,CCCC(=O)Oc1c(C)nn(C)c(=O)c1-c1c(-c2ccc(Br)cc2)sc2ccc(F)cc12 [2-206],4 (Herbicidal rate of 70% or more and less than 90%)

# Tested on: chickweed
# Assay: Test Example 5: herbicidal effect by foliage application, plastic box (Table 20, symbol P)
# Assay type: in vivo, common chickweed (Stellaria media)
# Conditions: foliage application, 320 g/ha, evaluated three weeks after application
# In short: as §1
row,SMILES,herbicidal effect on P: chickweed (criteria 0-5)
1,Cc1nn(C)c(=O)c(-c2c(-c3ccc(Br)cc3)sc3ccc(F)cc23)c1O [2-205],5 (Herbicidal rate of 90% or more (almost completely withered))
2,CCCC(=O)Oc1c(C)nn(C)c(=O)c1-c1c(-c2ccc(Br)cc2)sc2ccc(F)cc12 [2-206],5 (Herbicidal rate of 90% or more (almost completely withered))

# Tested on: Japanese bulrush
# Assay: Test Example 2: herbicidal activity, application during weed generation under submerged conditions (Table 17, symbol B)
# Assay type: in vivo, Japanese bulrush (Schoenoplectus juncoides)
# Conditions: AAH 320 g/ha; application during weed generation, submerged conditions
# In short: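 In this pot test, flooded alluvial soil (water depth 4 cm) holds all three species sown as a mixture. Once seedlings have one to two leaves, the compound's emulsion, thinned with water to the intended dose, is poured on the water; grading follows after three weeks on the earlier criteria.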
row,SMILES,"herbicidal effect rating, B: Japanese bulrush"
1,Cc1nn(C)c(=O)c(-c2c(-c3ccc(Br)cc3)sc3ccc(F)cc23)c1O [2-205],3 (Herbicidal rate of 40% or more and less than 70%)
2,CCCC(=O)Oc1c(C)nn(C)c(=O)c1-c1c(-c2ccc(Br)cc2)sc2ccc(F)cc12 [2-206],3 (Herbicidal rate of 40% or more and less than 70%)

# Tested on: velvetleaf
# Assay: Test Example 4: herbicidal effect by soil treatment (Table 19, symbol M)
# Assay type: in vivo, velvetleaf (Abutilon theophrasti)
# Conditions: amount of applied herbicide 320 g/ha
# In short: as §2
row,SMILES,"M: velvetleaf, herbicidal effect rating"
1,Cc1nn(C)c(=O)c(-c2c(-c3ccc(Br)cc3)sc3ccc(F)cc23)c1O [2-205],2 (Herbicidal rate of 20% or more and less than 40%)
2,CCCC(=O)Oc1c(C)nn(C)c(=O)c1-c1c(-c2ccc(Br)cc2)sc2ccc(F)cc12 [2-206],2 (Herbicidal rate of 20% or more and less than 40%)

# Tested on: velvetleaf
# Assay: Test Example 5: herbicidal effect by foliage application, plastic box (Table 20, symbol M)
# Assay type: in vivo, velvetleaf (Abutilon theophrasti)
# Conditions: foliage application, 320 g/ha, evaluated three weeks after application
# In short: as §1
row,SMILES,herbicidal effect on M: velvetleaf (criteria 0-5)
1,Cc1nn(C)c(=O)c(-c2c(-c3ccc(Br)cc3)sc3ccc(F)cc23)c1O [2-205],5 (Herbicidal rate of 90% or more (almost completely withered))
2,CCCC(=O)Oc1c(C)nn(C)c(=O)c1-c1c(-c2ccc(Br)cc2)sc2ccc(F)cc12 [2-206],5 (Herbicidal rate of 90% or more (almost completely withered))

# Tested on: blackgrass
# Assay: Test Example 4: herbicidal effect by soil treatment (Table 19, symbol J)
# Assay type: in vivo, blackgrass (Alopecurus myosuroides)
# Conditions: amount of applied herbicide 320 g/ha
# In short: as §2
row,SMILES,"J: blackgrass, herbicidal effect rating"
1,Cc1nn(C)c(=O)c(-c2c(-c3ccc(Br)cc3)sc3ccc(F)cc23)c1O [2-205],0 (Herbicidal rate of 5% or less (almost no effect))
2,CCCC(=O)Oc1c(C)nn(C)c(=O)c1-c1c(-c2ccc(Br)cc2)sc2ccc(F)cc12 [2-206],0 (Herbicidal rate of 5% or less (almost no effect))

# Tested on: green foxtail
# Assay: Test Example 4: herbicidal effect by soil treatment (Table 19, symbol G)
# Assay type: in vivo, green foxtail (Setaria viridis)
# Conditions: amount of applied herbicide 320 g/ha
# In short: as §2
row,SMILES,"G: green foxtail, herbicidal effect rating"
1,Cc1nn(C)c(=O)c(-c2c(-c3ccc(Br)cc3)sc3ccc(F)cc23)c1O [2-205],5 (Herbicidal rate of 90% or more (almost completely withered))
2,CCCC(=O)Oc1c(C)nn(C)c(=O)c1-c1c(-c2ccc(Br)cc2)sc2ccc(F)cc12 [2-206],3 (Herbicidal rate of 40% or more and less than 70%)

# Tested on: oval-leafed pondweed
# Assay: Test Example 1: herbicidal activity, application before weed generation under submerged conditions (Table 16, symbol C)
# Assay type: in vivo, oval-leafed pondweed (Monochoria vaginalis)
# Conditions: 320 g/ha applied herbicide
# In short: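 Submerged Wagner pots (alluvial soil, 4 cm water) sown with weed seeds and planted with 2.5-leaf rice seedlings; emulsifiable concentrate diluted in water applied to water surface on sowing day. Held in greenhouse at 25-30 °C; injury scored 0-5 by herbicidal rate after three weeks.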
row,SMILES,Herbicidal effect on C: oval-leafed pondweed (grade 0-5)
1,Cc1nn(C)c(=O)c(-c2c(-c3ccc(Br)cc3)sc3ccc(F)cc23)c1O [2-205],1 (Herbicidal rate of 5% or more and less than 20%)
2,CCCC(=O)Oc1c(C)nn(C)c(=O)c1-c1c(-c2ccc(Br)cc2)sc2ccc(F)cc12 [2-206],4 (Herbicidal rate of 70% or more and less than 90%)

# Tested on: redroot pigweed
# Assay: Test Example 5: herbicidal effect by foliage application, plastic box (Table 20, symbol N)
# Assay type: in vivo, redroot pigweed (Amaranthus retroflexus)
# Conditions: foliage application, 320 g/ha, evaluated three weeks after application
# In short: as §1
row,SMILES,herbicidal effect on N: redroot pigweed (criteria 0-5)
1,Cc1nn(C)c(=O)c(-c2c(-c3ccc(Br)cc3)sc3ccc(F)cc23)c1O [2-205],5 (Herbicidal rate of 90% or more (almost completely withered))
2,CCCC(=O)Oc1c(C)nn(C)c(=O)c1-c1c(-c2ccc(Br)cc2)sc2ccc(F)cc12 [2-206],5 (Herbicidal rate of 90% or more (almost completely withered))

# Tested on: wild oat
# Assay: Test Example 4: herbicidal effect by soil treatment (Table 19, symbol I)
# Assay type: in vivo, wild oat (Avena fatua)
# Conditions: amount of applied herbicide 320 g/ha
# In short: as §2
row,SMILES,"I: wild oat, herbicidal effect rating"
1,Cc1nn(C)c(=O)c(-c2c(-c3ccc(Br)cc3)sc3ccc(F)cc23)c1O [2-205],1 (Herbicidal rate of 5% or more and less than 20%)
2,CCCC(=O)Oc1c(C)nn(C)c(=O)c1-c1c(-c2ccc(Br)cc2)sc2ccc(F)cc12 [2-206],0 (Herbicidal rate of 5% or less (almost no effect))

# Tested on: Italian ryegrass
# Assay: Test Example 5: herbicidal effect by foliage application, plastic box (Table 20, symbol K)
# Assay type: in vivo, Italian ryegrass (Lolium multiflorum)
# Conditions: foliage application, 320 g/ha, evaluated three weeks after application
# In short: as §1
row,SMILES,herbicidal effect on K: Italian ryegrass (criteria 0-5)
1,Cc1nn(C)c(=O)c(-c2c(-c3ccc(Br)cc3)sc3ccc(F)cc23)c1O [2-205],5 (Herbicidal rate of 90% or more (almost completely withered))
2,CCCC(=O)Oc1c(C)nn(C)c(=O)c1-c1c(-c2ccc(Br)cc2)sc2ccc(F)cc12 [2-206],5 (Herbicidal rate of 90% or more (almost completely withered))

# Tested on: lambsquarters
# Assay: Test Example 4: herbicidal effect by soil treatment (Table 19, symbol O)
# Assay type: in vivo, lambsquarters (Chenopodium album)
# Conditions: amount of applied herbicide 320 g/ha
# In short: as §2
row,SMILES,"O: lambsquarters, herbicidal effect rating"
1,Cc1nn(C)c(=O)c(-c2c(-c3ccc(Br)cc3)sc3ccc(F)cc23)c1O [2-205],5 (Herbicidal rate of 90% or more (almost completely withered))
2,CCCC(=O)Oc1c(C)nn(C)c(=O)c1-c1c(-c2ccc(Br)cc2)sc2ccc(F)cc12 [2-206],4 (Herbicidal rate of 70% or more and less than 90%)

# Tested on: barnyard grass
# Assay: Test Example 4: herbicidal effect by soil treatment (Table 19, symbol H)
# Assay type: in vivo, barnyard grass (Echinochloa crus-galli)
# Conditions: amount of applied herbicide 320 g/ha
# In short: as §2
row,SMILES,"H: barnyard grass, herbicidal effect rating"
1,Cc1nn(C)c(=O)c(-c2c(-c3ccc(Br)cc3)sc3ccc(F)cc23)c1O [2-205],4 (Herbicidal rate of 70% or more and less than 90%)
2,CCCC(=O)Oc1c(C)nn(C)c(=O)c1-c1c(-c2ccc(Br)cc2)sc2ccc(F)cc12 [2-206],2 (Herbicidal rate of 20% or more and less than 40%)
